Source: patent US20250034523A1, “METHODS OF GENERATING HUMAN COCHLEAR HAIR CELLS” (THE TRUSTEES OF INDIANA UNIVERSITY, priority 2021, published 2025)

How the values were obtained:
[1] = system: PAX2-2A-nGFP/POU4F3-2A-ntdTomato hESC-derived aggregates; assay: derivation of POU4F3+ hair cells (POU4F3-ntdTomato reporter); type: cell-based, human
Description: To build a PAX2-2A-nGFP/POU4F3-2A-ntdTomato multiplex reporter cell line, the POU4F3-2A-ntdTomato knockin CRISPR was performed on the PAX2-2A-nGFP genetic background. The POU4F3-2A-tdTomato-nls-bGH polyA-frt-PGK-Puro-pA-frt donor plasmid was constructed by connecting the following DNA fragments via Gibson assembly: Two 1 kb homology arms flanking the POU4F3 stop codon amplified from WA25 genomic DNA, 2A-tdTomato gBlock DNA, nls-stop-bGH pA gBlock DNA, frt-PGK-Puro-frt gBlock DNA (IDT), and a linearized pUC19 backbone. The completed donor plasmid was transfected into the PAX2-2A-nGFP parental hES cell line along with a ribonucleoprotein complex composed of a synthetic sgRNA (5′-[…]-3′ (SEQ ID NO: 30)) (Synthego) targeting the POU4F3 stop codon locus, and a high fidelity Cas9 protein (HiFi Cas9 v3, IDT). The transfection was also performed with a 4D Nucleofector (Lonza) using the P3 Primary Cell 4D-Nucleofector X kit and Program CB-150. After nucleofection, cells were plated in E8fn medium containing 1× RevitaCell (Thermo Fisher) and 1 μM of Scr7 (Xcessbio). 0.5 μg/mL puromycin selection was performed for 9 days starting from 48 h post-nucleofection. The frt-flanked PGK-Puro cassette was removed via FLPo transfection (Addgene #13793). Clonal cell line isolation and genotyping procedures were the same as PAX2-2A-nGFP CRISPR. […]

[2] = system: hair cells in hESC-derived inner ear organoids; assay: PRESTIN immunohistochemistry of hair cells in hESC-derived inner ear organoids; type: cell-based, human; conditions: for PRESTIN expression / number of Prestin positive HCs: 250 ng/ml thyroxine, about day 50 to about day 100
Description: PAX2-2A-nGFP/POU4F3-2A-ntdTomat hESCs (passages 22-50) were maintained and passaged in Essential 8 Flex Medium (Thermo Fisher, A2858501) supplemented with 100 μg/ml Normocin (E8fn) on recombinant human Vitronectin-N(Thermo Fisher, A14700)-coated 6-well plates. Human inner ear organoids were derived from hESCs based on the inventors' previous protocol 8.10 with major modifications. Briefly, hESCs were dissociated with StemPro Accutase (Thermo Fisher, A1110501) and distributed at 3500 cells per well onto low-adhesion 96-well U-bottom plates in 100 μL E8fn containing 20 μM Y-27632 (Stemgent, 04-0012-02) and forcibly aggregated at 120 g for 5 minutes. 100 μL of E8fn was added to each well after >4 h of incubation. Induction of non-neural epithelium occurred following 48 h of aggregation, marking differentiation day 0, as follows: aggregates were washed extensively in DMEM:F12 with HEPES buffer (DFH) (Thermo Fisher, 11320033) and transferred to new 96-well U-bottom plates in 100 μL of E6 medium (Thermo Fisher, A1516401) with Normocin (E6n) containing 4 ng mL^−1 FGF-2 (StemCell Technologies, 780003), 10 μM SB-431542 (Stemgent, 04-0010-05), and 2% growth factor reduced (GFR) Matrigel (Corning, 354230). On day 3 of differentiation, 25 μL of E6n containing 50 ng/ml FGF-2 and 200 nM LDN-193189 (Stemgent, 04-0074-02) was added to each well. Culture medium was changed on days 7 and 9 with Eon containing 3 μM CHIR 99021 (Reprocell, 04-0004-10), 200 nM LDN, and 50 ng/mL FGF-2. On day 11, aggregates were washed and transferred to a Nunc Delta surface 6-well culture dish in Organoid Maturation Medium (OMM) containing 1% GFR Matrigel and 3 μM CHIR99021. OMM consists of a 50:50 mixture of Advanced DMEM:F12 (Thermo Fisher, 12634028) and Neurobasal Medium (Thermo Fisher, 21103049) supplemented with 0.5×N2 Supplement (Thermo Fisher, 17502048), 0.5×B27 minus Vitamin A (Thermo Fisher, 12587010), 1× GlutaMAX (Thermo Fisher, 35050061), 0.1 mM β-Mercaptoethanol (Thermo Fisher, 21985023), and Normocin. Control cultures were maintained in OMM+3 μM CHIR99021 until day 18 with media changes on days 13 and 15, then OMM for the remainder of the culture. Treatment cultures were supplemented with 1 μM Purmorphamine (Stemgent, 04-0009) from days 13-22, and IWP-2 (Tocris, 3533) from days 18-22, with media changes on days 15,18, and 20, then maintained in OMM for the remainder of the culture.
Aggregates were fixed with 4% paraformaldehyde for 30 min at room temperature or at 4° C. overnight. […]
Treated and control samples were processed for immunostaining simultaneously using identical reagents and protocols for each comparison. […] Raw images were analysed using Nikon GI3 suite or exported in TIFF format and analysed using ImageJ. […]

Cl.Cl.O=S(=O)(NCCNCC=Cc1ccc(Br)cc1)c1cccc2cnccc12 [H89]
efficacy in deriving POU4F3+ hair cells ([1]; 10 μM H89 alone or combined with PUR / PUR+IWP2, D102): none of these treatments were efficacious

N[C@@H](Cc1cc(I)c(Oc2cc(I)c(O)c(I)c2)c(I)c1)C(=O)O [T4, thyroxine]
PRESTIN expression / number of Prestin positive HCs ([2]; listed as Thyroxine): increases | PRESTIN expression / number of Prestin positive HCs ([2]; listed as thyroxine): increased PRESTIN expression | SOX2 expression in HCs ([2]; T4 treated cochlear organoid cultures): downregulated | PRESTIN+HCs ([2]; cochlear organoid cultures, 250 ng/ml T4 from culture day 50 until D100, read at D100): ~80%

B1: BMP-4: recombinant bone morphogenic protein applied on day 0 (protein, UniProt P12644 293-408, looked up)
Bone morphogenetic protein 4: SPKHHSQRARKKNKNCRRHSLYVDFSDVGWNDWIVAPPGYQAFYCHGDCPFPLADHLNSTNHAIVQTLVNSVNSSIPKACCVPTELSAISMLYLDEYDKVVLKNYQEMVVEGCGCR
proportion of POU4F3 cells ([1]; BMP-4 applied on day 0, read at D55): increases
